What all share (type): cell-based
Experiment [1] concerns the target Transient receptor potential cation channel subfamily A member 1 (Rattus norvegicus) (UniProt Q6RI86). The experiment is described as follows: Agonist activity at rat TRPA1 transfected in HEK293 cells assessed as increase in intracellular Ca2+ concentration by measuring efficacy by Fluo4-AM dye based assay relative to AITC.
The target in experiment [2] is T1, Transient receptor potential cation channel subfamily A member 1 (Rattus norvegicus, UniProt Q6RI86). As to the kind of experiment: Agonist activity at rat TRPA1 transfected in HEK293 cells assessed as increase in intracellular Ca2+ concentration by Fluo4-AM dye based assay.
The target of experiment [3] is T1, Transient receptor potential cation channel subfamily A member 1. The experiment is described as follows: Antagonist activity at rat TRPA1 transfected in HEK293 cells assessed as desensitization by measuring inhibition of AITC induced increase in intracellular Ca2+ concentration preincubated for 5 mins followed by AITC stimulation by Fluo4-AM dye based assay.
Experiment [4] addresses Transient receptor potential cation channel subfamily M member 8 (Rattus norvegicus, UniProt Q8R455). The experiment is described as follows: Antagonist activity at rat TRPM8 transfected in HEK293 cells assessed as inhibition of icilin induced increase in intracellular Ca2+ concentration preincubated for 5 mins followed by icilin stimulation by Fluo4-AM dye based assay.
In experiment [5] the target is Transient receptor potential cation channel subfamily V member 1 (Homo sapiens) (UniProt Q8NER1). As to the kind of experiment: Modulation of human TRPV1 transfected in HEK293 cells.

Molecules are shown by their SMILES. Calls of active or inactive are those of the source. The rule behind the calls is not given here.

Transient receptor potential cation channel subfamily V member 1 (Homo sapiens), sequence (Q8NER1 whole entry): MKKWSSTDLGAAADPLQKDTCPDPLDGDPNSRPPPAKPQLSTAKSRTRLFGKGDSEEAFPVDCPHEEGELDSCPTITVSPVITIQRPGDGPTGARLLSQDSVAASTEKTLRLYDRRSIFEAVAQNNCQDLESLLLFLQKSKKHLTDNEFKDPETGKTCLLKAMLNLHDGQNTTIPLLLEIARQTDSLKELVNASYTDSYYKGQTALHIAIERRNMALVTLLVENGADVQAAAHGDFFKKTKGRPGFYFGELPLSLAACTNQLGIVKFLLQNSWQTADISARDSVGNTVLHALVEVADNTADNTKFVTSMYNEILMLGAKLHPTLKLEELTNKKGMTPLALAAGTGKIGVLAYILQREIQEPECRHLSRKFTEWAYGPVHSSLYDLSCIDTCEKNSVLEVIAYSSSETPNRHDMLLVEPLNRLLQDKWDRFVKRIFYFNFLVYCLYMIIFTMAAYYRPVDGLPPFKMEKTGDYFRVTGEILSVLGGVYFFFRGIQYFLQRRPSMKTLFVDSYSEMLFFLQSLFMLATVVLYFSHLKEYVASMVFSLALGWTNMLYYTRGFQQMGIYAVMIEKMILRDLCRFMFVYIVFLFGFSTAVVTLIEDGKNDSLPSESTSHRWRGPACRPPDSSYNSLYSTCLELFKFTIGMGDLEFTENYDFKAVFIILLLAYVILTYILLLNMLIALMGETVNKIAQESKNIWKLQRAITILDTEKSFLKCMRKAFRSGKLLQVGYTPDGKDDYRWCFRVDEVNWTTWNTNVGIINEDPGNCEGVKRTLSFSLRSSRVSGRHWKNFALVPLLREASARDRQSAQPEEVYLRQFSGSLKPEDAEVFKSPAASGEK
Transient receptor potential cation channel subfamily A member 1 (Rattus norvegicus), sequence (Q6RI86 whole entry): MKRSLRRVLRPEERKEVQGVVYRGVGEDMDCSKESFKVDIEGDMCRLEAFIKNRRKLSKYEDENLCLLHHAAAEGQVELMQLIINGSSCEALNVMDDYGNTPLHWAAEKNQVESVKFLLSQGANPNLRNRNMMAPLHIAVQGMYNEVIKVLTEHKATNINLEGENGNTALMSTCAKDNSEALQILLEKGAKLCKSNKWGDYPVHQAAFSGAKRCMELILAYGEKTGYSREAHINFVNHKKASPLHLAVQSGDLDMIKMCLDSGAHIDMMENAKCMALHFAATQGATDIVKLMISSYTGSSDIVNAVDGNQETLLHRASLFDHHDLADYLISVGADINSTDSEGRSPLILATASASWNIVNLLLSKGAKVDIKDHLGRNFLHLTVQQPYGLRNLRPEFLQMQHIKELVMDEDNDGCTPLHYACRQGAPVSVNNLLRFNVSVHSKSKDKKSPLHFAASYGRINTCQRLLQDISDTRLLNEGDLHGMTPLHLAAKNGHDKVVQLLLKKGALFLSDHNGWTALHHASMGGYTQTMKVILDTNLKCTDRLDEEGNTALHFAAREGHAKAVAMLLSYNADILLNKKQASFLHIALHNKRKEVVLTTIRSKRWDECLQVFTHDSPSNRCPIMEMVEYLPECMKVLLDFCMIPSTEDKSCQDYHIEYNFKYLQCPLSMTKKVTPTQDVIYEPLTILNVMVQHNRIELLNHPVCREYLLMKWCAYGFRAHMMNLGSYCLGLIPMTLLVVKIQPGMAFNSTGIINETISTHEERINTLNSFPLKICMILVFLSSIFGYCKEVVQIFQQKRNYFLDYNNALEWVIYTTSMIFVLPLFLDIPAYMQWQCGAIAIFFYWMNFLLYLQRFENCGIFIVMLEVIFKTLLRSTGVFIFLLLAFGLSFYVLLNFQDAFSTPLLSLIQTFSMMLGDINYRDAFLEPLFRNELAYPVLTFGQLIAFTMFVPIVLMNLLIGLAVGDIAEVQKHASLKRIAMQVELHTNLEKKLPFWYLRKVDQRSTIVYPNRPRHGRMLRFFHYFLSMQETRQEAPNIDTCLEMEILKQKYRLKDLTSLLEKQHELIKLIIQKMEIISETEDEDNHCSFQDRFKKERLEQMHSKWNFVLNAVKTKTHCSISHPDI
T1 sequence (Q6RI86 whole entry): as above
Transient receptor potential cation channel subfamily M member 8, sequence (Q8R455 whole entry): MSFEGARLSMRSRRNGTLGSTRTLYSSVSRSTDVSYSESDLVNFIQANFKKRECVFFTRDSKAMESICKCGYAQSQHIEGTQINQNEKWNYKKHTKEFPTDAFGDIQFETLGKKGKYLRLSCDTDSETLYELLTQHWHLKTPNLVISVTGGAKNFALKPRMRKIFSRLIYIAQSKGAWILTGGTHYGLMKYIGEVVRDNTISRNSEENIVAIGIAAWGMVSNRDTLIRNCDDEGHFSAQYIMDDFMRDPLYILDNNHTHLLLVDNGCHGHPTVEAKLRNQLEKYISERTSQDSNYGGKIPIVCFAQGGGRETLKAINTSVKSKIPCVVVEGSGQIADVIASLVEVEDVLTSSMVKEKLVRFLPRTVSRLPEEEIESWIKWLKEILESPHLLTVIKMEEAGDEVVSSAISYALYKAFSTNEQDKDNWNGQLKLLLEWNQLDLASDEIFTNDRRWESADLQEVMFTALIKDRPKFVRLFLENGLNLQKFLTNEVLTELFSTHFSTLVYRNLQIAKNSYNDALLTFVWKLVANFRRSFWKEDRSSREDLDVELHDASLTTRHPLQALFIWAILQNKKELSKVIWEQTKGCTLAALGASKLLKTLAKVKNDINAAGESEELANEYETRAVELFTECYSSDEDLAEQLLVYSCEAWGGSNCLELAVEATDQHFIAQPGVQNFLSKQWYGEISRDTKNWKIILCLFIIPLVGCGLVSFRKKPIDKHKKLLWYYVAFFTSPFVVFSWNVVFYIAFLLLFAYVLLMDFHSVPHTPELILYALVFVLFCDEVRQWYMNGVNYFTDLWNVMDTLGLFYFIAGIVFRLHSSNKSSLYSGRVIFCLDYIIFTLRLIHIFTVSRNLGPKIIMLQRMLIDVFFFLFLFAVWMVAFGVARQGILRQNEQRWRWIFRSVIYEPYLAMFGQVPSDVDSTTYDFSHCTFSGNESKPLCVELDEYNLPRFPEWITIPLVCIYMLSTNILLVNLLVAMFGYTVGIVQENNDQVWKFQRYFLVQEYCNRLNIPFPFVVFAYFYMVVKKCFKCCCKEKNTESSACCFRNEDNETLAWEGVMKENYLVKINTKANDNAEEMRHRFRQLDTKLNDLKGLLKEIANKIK

With `CCCCCc1cc(O)c(C/C=C(\C)CCC=C(C)C)c(O)c1`, in experiment [1] (filed as agonist), the Efficacy came out at 99.9%.
Turning to `C=C(C)[C@@H](O)CC/C(C)=C/Cc1c(O)cc(CCCCC)c(C(=O)O)c1O`, the Efficacy in experiment [1] is 31%. Also, in experiment [2], the EC50 (in general, the concentration needed to bring the measured effect to its halfway point) was determined as 15 µM. Moreover, the IC50 (in general, the midpoint of a concentration-inhibition curve) in experiment [3] is greater than 50 µM; in experiment [4], 33 µM.
Take `C=C(C)C(O)CC/C(C)=C/Cc1c(O)cc(CCCCC)cc1O` (racemic): the Efficacy in experiment [1] (filed as agonist) amounted to 75.3%. In addition, in experiment [2], the EC50 turned out to be 1 µM. In addition, the IC50 in experiment [3] is 7.9 µM; in experiment [4], 0.8 µM. In addition, the outcome in experiment [5] was inactive.
Turning to `C=C(C)[C@H](O)CC/C(C)=C/Cc1c(O)cc(CCCCC)c(C(=O)O)c1O`, the Efficacy in experiment [1] (filed as agonist) came out at 68.5%. Also, in experiment [2], the EC50 turned out to be 8.5 µM. Besides, the IC50 was greater than 50 µM in experiment [3] and 5.2 µM in experiment [4].
On the same counts, the results for `CCCCCc1cc(O)c(C/C=C(\C)CCC=C(C)C)c(O)c1C(=O)O` [CANNABIGEROLIC ACID] are 183%, 8.4 µM, 7.14 µM and 1.31 µM.
Take `C=C(C)[C@H](CCC(C)=O)[C@@H]1c2c(cc(CCCCC)c(C(=O)O)c2O)O[C@@H]1O`: the Efficacy in experiment [1] (filed as agonist) amounted to 85.7%. The EC50 in experiment [2] was found to be 8.8 µM. In addition, the IC50 is 19.2 µM in experiment [3] and 8 µM in experiment [4].
For the molecule `C=C(C)[C@H](CCC(C)=O)[C@@H]1c2c(cc(CCCCC)c(C(=O)O)c2O)O[C@H]1O`, the Efficacy in experiment [1] (filed as agonist) is 91.5%. For the same molecule, the EC50 in experiment [2] stood at 6.6 µM. For the same molecule, the values for the IC50 in experiment [3] and in experiment [4] were 17.9 µM and 23.9 µM, respectively.
Take `CCCCCC1=CC(=O)C(C/C=C(\C)CCC=C(C)C)=C(O)C1=O`: in experiment [1] (filed as agonist), the Efficacy was determined as 134%. In addition, the EC50 in experiment [2] turned out to be 7.8 µM. For the same molecule, the IC50 in experiment [3] was found to be 8.4 µM; in experiment [4], 3 µM. Besides, the outcome in experiment [5] was inactive.
Consider `CCCCCc1cc(O)c(C/C=C(\C)CCC(=O)O)c(O)c1C(=O)O`, for which, in experiment [1] (filed as agonist), the Efficacy was found to be 40.4%. The EC50 in experiment [2] was determined as 28.3 µM. Moreover, the IC50 in experiment [3] was greater than 50 µM; in experiment [4], 29.5 µM.
Turning to `C=C(C)C(O)CC/C(C)=C\Cc1c(O)cc(CCCCC)c(C(=O)O)c1O` (stereo not drawn), in experiment [1] (filed as agonist), the Efficacy came out at 100%. Further, the EC50 in experiment [2] came to 6.9 µM. The IC50 was 13.9 µM in experiment [3] and 4 µM in experiment [4]. Besides, the outcome in experiment [5] was inactive.
With `C=C(C)C(O)CC/C(C)=C/Cc1c(O)cc(CCCCC)c(C(=O)O)c1O` (stereo not drawn), in experiment [1] (filed as agonist), the Efficacy was determined as 96.1%. Moreover, in experiment [2], the EC50 came to 12.1 µM. The values for the IC50 in experiment [3] and in experiment [4] were 37.3 µM and 10.4 µM, respectively.
As for `CCCCCc1cc(O)c(C/C=C(\C)CCC(O)C(C)(C)O)c(O)c1C(=O)O` (stereo not drawn), the Efficacy in experiment [1] (filed as agonist) is 84.1%. Also, in experiment [2], the EC50 is 10.3 µM. The IC50 is 25.1 µM in experiment [3] and 17.3 µM in experiment [4].

For the origin of these results see ChEMBL document CHEMBL5385925, “Phytochemical Characterization and TRPA1/TRPM8 Modulation Profile of the Cannabigerol-Rich Cannabis sativa L. Chemotype IV” (J Nat Prod, 2024).
